Where “and” joins values, the source holds several entries; their conditions need not be identical. Identical values can stand only once. ± gives the uncertainty stated by the source.
Experiment: xn = mol fraction of the nth substance listed

Cc1cccc([N+](=O)[O-])c1 + C1CCCCC1
viscosity (303.15 K, 101.33 kPa, x1 = 0.206): 0.93 ± 0.02 mPa·s
viscosity (303.15 K, 101.33 kPa, x1 = 0.38): 1.03 ± 0.018 mPa·s
viscosity (303.15 K, 101.33 kPa, x1 = 0.593): 1.25 ± 0.017 mPa·s
viscosity (303.15 K, 101.33 kPa, x1 = 0.801): 1.54 ± 0.018 mPa·s

NCC(=O)NCC(=O)O + O
viscosity (293.15 K, 101.3 kPa, x1 = 0.002): 1.04 ± 0.06 mPa·s and 1.04 ± 0.04 mPa·s
viscosity (293.15 K, 101.3 kPa, x1 = 0.004): 1.08 ± 0.07 mPa·s and 1.08 ± 0.04 mPa·s
viscosity (293.15 K, 101.3 kPa, x1 = 0.005): 1.1 ± 0.07 mPa·s and 1.1 ± 0.04 mPa·s
viscosity (293.15 K, 101.3 kPa, x1 = 0.007): 1.14 ± 0.07 mPa·s and 1.14 ± 0.05 mPa·s
viscosity (298.15 K, 100 kPa, x1 = 0.000887): 0.9004 ± 0.019 mPa·s
viscosity (298.15 K, 100 kPa, x1 = 0.00175): 0.907 ± 0.019 mPa·s
viscosity (298.15 K, 100 kPa, x1 = 0.002593): 0.9129 ± 0.019 mPa·s
viscosity (298.15 K, 100 kPa, x1 = 0.003411): 0.9185 ± 0.019 mPa·s
viscosity (298.15 K, 100 kPa, x1 = 0.004207): 0.9239 ± 0.019 mPa·s
viscosity (298.15 K, 100 kPa, x1 = 0.004983): 0.9292 ± 0.019 mPa·s
viscosity (298.15 K, 100 kPa, x1 = 0.005739): 0.9343 ± 0.019 mPa·s
viscosity (298.15 K, 100 kPa, x1 = 0.006476): 0.9394 ± 0.02 mPa·s
viscosity (303.15 K, 100 kPa, x1 = 0.00175): 0.8135 ± 0.017 mPa·s
viscosity (303.15 K, 100 kPa, x1 = 0.002593): 0.8194 ± 0.017 mPa·s
viscosity (303.15 K, 100 kPa, x1 = 0.003411): 0.8251 ± 0.017 mPa·s
viscosity (303.15 K, 100 kPa, x1 = 0.004207): 0.8307 ± 0.017 mPa·s
viscosity (303.15 K, 100 kPa, x1 = 0.004983): 0.836 ± 0.017 mPa·s
viscosity (303.15 K, 100 kPa, x1 = 0.005739): 0.8413 ± 0.017 mPa·s
viscosity (303.15 K, 100 kPa, x1 = 0.006476): 0.8465 ± 0.018 mPa·s
viscosity (303.15 K, 101.3 kPa, x1 = 0.002): 0.82 ± 0.05 mPa·s and 0.82 ± 0.03 mPa·s
viscosity (303.15 K, 101.3 kPa, x1 = 0.004): 0.85 ± 0.05 mPa·s and 0.85 ± 0.03 mPa·s
viscosity (303.15 K, 101.3 kPa, x1 = 0.005): 0.87 ± 0.05 mPa·s and 0.87 ± 0.04 mPa·s
viscosity (303.15 K, 101.3 kPa, x1 = 0.007): 0.9 ± 0.05 mPa·s and 0.9 ± 0.04 mPa·s
viscosity (308.15 K, 100 kPa, x1 = 0.000887): 0.7285 ± 0.015 mPa·s
viscosity (308.15 K, 100 kPa, x1 = 0.00175): 0.7349 ± 0.015 mPa·s
viscosity (308.15 K, 100 kPa, x1 = 0.002593): 0.7408 ± 0.015 mPa·s
viscosity (308.15 K, 100 kPa, x1 = 0.003411): 0.7465 ± 0.016 mPa·s
viscosity (308.15 K, 100 kPa, x1 = 0.004207): 0.752 ± 0.016 mPa·s
viscosity (308.15 K, 100 kPa, x1 = 0.004983): 0.7573 ± 0.016 mPa·s
viscosity (308.15 K, 100 kPa, x1 = 0.005739): 0.7627 ± 0.016 mPa·s
viscosity (308.15 K, 100 kPa, x1 = 0.006476): 0.7679 ± 0.016 mPa·s
viscosity (313.15 K, 100 kPa, x1 = 0.000887): 0.6622 ± 0.014 mPa·s
viscosity (313.15 K, 100 kPa, x1 = 0.00175): 0.6683 ± 0.014 mPa·s
viscosity (313.15 K, 100 kPa, x1 = 0.002593): 0.6742 ± 0.014 mPa·s
viscosity (313.15 K, 100 kPa, x1 = 0.003411): 0.6797 ± 0.014 mPa·s
viscosity (313.15 K, 100 kPa, x1 = 0.004207): 0.685 ± 0.014 mPa·s
viscosity (313.15 K, 100 kPa, x1 = 0.004983): 0.6904 ± 0.014 mPa·s
viscosity (313.15 K, 100 kPa, x1 = 0.005739): 0.6957 ± 0.015 mPa·s
viscosity (313.15 K, 100 kPa, x1 = 0.006476): 0.7006 ± 0.015 mPa·s
viscosity (313.15 K, 101.3 kPa, x1 = 0.002): 0.67 ± 0.04 mPa·s and 0.67 ± 0.03 mPa·s
viscosity (313.15 K, 101.3 kPa, x1 = 0.004): 0.69 ± 0.04 mPa·s and 0.69 ± 0.03 mPa·s
viscosity (313.15 K, 101.3 kPa, x1 = 0.005): 0.71 ± 0.04 mPa·s and 0.71 ± 0.03 mPa·s
viscosity (313.15 K, 101.3 kPa, x1 = 0.007): 0.74 ± 0.05 mPa·s and 0.74 ± 0.03 mPa·s
viscosity (318.15 K, 100 kPa, x1 = 0.000887): 0.6045 ± 0.013 mPa·s
viscosity (318.15 K, 100 kPa, x1 = 0.00175): 0.6105 ± 0.013 mPa·s
viscosity (318.15 K, 100 kPa, x1 = 0.002593): 0.6162 ± 0.013 mPa·s
viscosity (318.15 K, 100 kPa, x1 = 0.003411): 0.6216 ± 0.013 mPa·s
viscosity (318.15 K, 100 kPa, x1 = 0.004207): 0.6269 ± 0.013 mPa·s
viscosity (318.15 K, 100 kPa, x1 = 0.004983): 0.6322 ± 0.013 mPa·s
viscosity (318.15 K, 100 kPa, x1 = 0.005739): 0.6374 ± 0.013 mPa·s
viscosity (318.15 K, 100 kPa, x1 = 0.006476): 0.6425 ± 0.013 mPa·s
viscosity (323.15 K, 101.3 kPa, x1 = 0.002): 0.56 ± 0.03 mPa·s and 0.56 ± 0.02 mPa·s
viscosity (323.15 K, 101.3 kPa, x1 = 0.004): 0.59 ± 0.04 mPa·s and 0.59 ± 0.02 mPa·s
viscosity (323.15 K, 101.3 kPa, x1 = 0.005): 0.6 ± 0.04 mPa·s and 0.6 ± 0.02 mPa·s
viscosity (323.15 K, 101.3 kPa, x1 = 0.007): 0.62 ± 0.04 mPa·s and 0.62 ± 0.03 mPa·s

O=C(O)c1cccc([N+](=O)[O-])c1 + CO
viscosity (308.15 K, 101 kPa, x1 = 0.0362): 0.8055 ± 0.0082 mPa·s
viscosity (308.15 K, 101 kPa, x1 = 0.0466): 0.9203 ± 0.0092 mPa·s
viscosity (308.15 K, 101 kPa, x1 = 0.0506): 0.9556 ± 0.0096 mPa·s
viscosity (308.15 K, 101 kPa, x1 = 0.09126): 1.889 ± 0.05 mPa·s
viscosity (308.15 K, 101 kPa, x1 = 0.1046): 2.773 ± 0.074 mPa·s
viscosity (313.15 K, 101 kPa, x1 = 0.09126): 1.727 ± 0.046 mPa·s
viscosity (313.15 K, 101 kPa, x1 = 0.1046): 2.425 ± 0.064 mPa·s
viscosity (318.15 K, 101 kPa, x1 = 0.09126): 1.573 ± 0.042 mPa·s
viscosity (318.15 K, 101 kPa, x1 = 0.1046): 2.262 ± 0.06 mPa·s
viscosity (323.15 K, 101 kPa, x1 = 0.0362): 0.646 ± 0.0068 mPa·s
viscosity (323.15 K, 101 kPa, x1 = 0.0466): 0.7331 ± 0.0077 mPa·s
viscosity (323.15 K, 101 kPa, x1 = 0.0506): 0.7603 ± 0.0079 mPa·s
viscosity (323.15 K, 101 kPa, x1 = 0.0604): 0.8441 ± 0.0085 mPa·s
viscosity (323.15 K, 101 kPa, x1 = 0.09126): 1.421 ± 0.038 mPa·s
viscosity (323.15 K, 101 kPa, x1 = 0.1046): 2.026 ± 0.054 mPa·s
